One may read the IC50 as the concentration that gives 50% inhibition. A high value points to lower potency.

SMILES strings stand for the structures. Where a name gives a salt, the structure may show the parent alone.

The target in this test is T1, hNK2 receptor (Homo sapiens, UniProt P21452).
T1 construct: host or cells: CHO cells
T1 sequence (P21452 1-398): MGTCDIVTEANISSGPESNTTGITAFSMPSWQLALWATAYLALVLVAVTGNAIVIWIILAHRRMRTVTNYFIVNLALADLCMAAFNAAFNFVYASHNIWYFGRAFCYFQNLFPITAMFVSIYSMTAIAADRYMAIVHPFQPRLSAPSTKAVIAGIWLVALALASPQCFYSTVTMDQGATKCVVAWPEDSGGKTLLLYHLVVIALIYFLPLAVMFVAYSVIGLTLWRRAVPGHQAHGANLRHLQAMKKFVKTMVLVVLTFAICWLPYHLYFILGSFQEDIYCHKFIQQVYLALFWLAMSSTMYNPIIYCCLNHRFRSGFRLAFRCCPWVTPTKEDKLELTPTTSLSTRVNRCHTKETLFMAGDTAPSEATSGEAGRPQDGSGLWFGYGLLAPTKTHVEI
The test is described as follows: Radio-ligand ([125I]-NKA) receptor binding inhibitory activity using membrane fraction of hNK2 receptor-expressing CHO cell. The conditions noted are these: membrane fraction of hNK2 receptor-expressing CHO cells, 25° C., 30 min. The method, then: hNK2 receptor-expressing CHO cells (produced by EUROSCREEN) were cultured in HAM-F12 medium containing 400 μg/ml Geneticin, 100 U/mL penicillin, 100 μg/mL streptomycin and 10% inactivated serum. The medium was removed and adhered cells were washed with PBS, and PBS containing 5 mM EDTA was added to detach the cells from the flask. The cells were recovered by centrifugation, suspended in suspending buffer A (15 mM Tris-HCl (pH 7.5), 2 mM MgCl2, 0.3 mM EDTA, 1 mM EGTA), disrupted by POLYTRON homogenizer (manufactured by KINEMATICA) and centrifuged at 800×g for 10 min. The supernatant was recovered and ultracentrifuged at 100000×g for 25 min. The precipitated fraction was suspended in suspending buffer B (7.5 mM Tris-HCl (pH 7.5), 12.5 mM MgCl2, 0.3 mM EDTA, 1 mM, […], 250 mM Sucrose) and cryopreserved (at −80° C.) as a receptor specimen.
An assay buffer (50 μl, 50 mM Tris-HCl (pH 7.4), 0.02% bovine serum albumin, 2 μg/mL chymostatin, 40 μg/mL bacitracin, 40 μg/mL APMSF, 3 mM MnCl2) was added to a 96 well microassay plate. Thereto was added a 20 μg/mL membrane specimen suspended in the assay buffer (50 μL). An assay buffer (50 μL) containing 2% dimethyl sulfoxide was added to examine the total binding, 4 unlabeled NKA (produced by Peptide Institute, Inc.) solution (50 μL) diluted with an assay buffer containing 2% dimethyl sulfoxide was added to examine non-specific binding, and a test compound diluted with an assay buffer (50 containing 2% dimethyl sulfoxide) was added to examine the binding inhibitory activity of the test compound. Furthermore, […] [^125I]-NKA (produced by Amersham Biosciences) solution (50 μL) was added to each well.
After reaction at 25° C. for 30 min., the reaction was stopped by rapid filtration on a unifilter plate (GF/C) (manufactured by PerkinElmer) using a cell harvester (manufactured by PerkinElmer) and the cells were washed 5 times with 50 mM Tris-HCl (pH 7.4) buffer containing 0.02% bovine serum albumin (250 μL). The GF/C filter plate was dried and 20 μl, of MicroScinti-O (manufactured by PerkinElmer) was added and the radioactivity was measured in Topcount (manufactured by PerkinElmer). The GF/C filter plate, which had been immersed in 0.3% polyethyleneimine for one day, was used. Specific binding is shown by the value obtained by subtracting non-specific binding from the total binding. The binding inhibitory activity of the test compound is shown by the ratio of the value obtained by subtracting the measured value associated with the addition of the test compound from the total binding, to the value of the specific binding.
Molecule `O=C(N[C@@H]1CCCC[C@@H]1C(=O)N1CC[C@@H]2[C@H](c3ccccc3)Nc3ccccc3[C@@H]21)c1ccccc1` (relative stereo) [Example 1, N-((1R,2S)-2-{[(3aR*,4R*,9bR*)-4-Phenyl-2,3,3a,4,5,9b-hexahydro-1H-pyrrolo[3,2-c]quinolin-1-yl]carbonyl}cyclohexyl)benzamide] showed an IC50 of less than 10 nM.
The value for `O=C(N[C@@H]1CCCC[C@@H]1C(=O)N1CC[C@@H]2[C@H](c3ccccc3)Nc3cc(F)ccc3[C@@H]21)c1ccccc1` (relative stereo) [Example 6, N-((1R,2S)-2-{[(3aR*,4R*,9bR*)-7-Fluoro-4-phenyl-2,3,3a,4,5,9b-hexahydro-1H-pyrrolo[3,2-c]quinolin-1-yl]carbonyl}cyclohexyl)benzamide] was less than 10 nM.
Regarding `O=C(N[C@@H]1CCCC[C@@H]1C(=O)N1CC[C@@H]2[C@H](c3ccccc3)Nc3cc(Cl)ccc3[C@@H]21)c1ccccc1` (relative stereo) [Example 7, N-((1R,2S)-2-{[(3aR*,4R*,9bR*)-7-Chloro-4-phenyl-2,3,3a,4,5,9b-hexahydro-1H-pyrrolo[3,2-c]quinolin-1-yl]carbonyl}cyclohexyl)benzamide], the IC50 was less than 10 nM.
To `O=C(N[C@@H]1CCCC[C@@H]1C(=O)N1CC[C@@H]2[C@H](c3ccccc3)Nc3c(F)cccc3[C@@H]21)c1ccccc1` (relative stereo) [Example 8, N-((1R,2S)-2-{[(3aR*,4R*,9bR*)-6-Fluoro-4-phenyl-2,3,3a,4,5,9b-hexahydro-1H-pyrrolo[3,2-c]quinolin-1-yl]carbonyl}cyclohexyl)benzamide] belongs less than 10 nM.
For the molecule `O=C(N[C@@H]1CCCC[C@@H]1C(=O)N1CC[C@@H]2[C@H](c3ccc(F)cc3)Nc3ccccc3[C@@H]21)c1ccccc1` (relative stereo) [Example 9, N-((1R,2S)-2-{[(3aR*,4R*,9bR*)-4-(4-Fluorophenyl)-2,3,3a,4,5,9b-hexahydro-1H-pyrrolo[3,2-c]quinolin-1-yl]carbonyl}cyclohexyl)benzamide], the IC50 is less than 10 nM.
The value for `O=C(N[C@@H]1CCCC[C@@H]1C(=O)N1CC[C@@H]2[C@H](c3ccco3)Nc3ccccc3[C@@H]21)c1ccccc1` (relative stereo) [Example 15, N-((1R,2S)-2-{[(3aR*,4R*,9bR*)-4-(2-Furyl)-2,3,3a,4,5,9b-hexahydro-1H-pyrrolo[3,2-c]quinolin-1-yl]carbonyl}cyclohexyl)benzamide] was less than 10 nM; that for `O=C(N[C@@H]1CCCC[C@@H]1C(=O)N1CC[C@@H]2[C@H](c3ccoc3)Nc3ccccc3[C@@H]21)c1ccccc1` (relative stereo) [Example 16, N-((1R,2S)-2-{[(3aR*,4R*,9bR*)-4-(3-Furyl)-2,3,3a,4,5,9b-hexahydro-1H-pyrrolo[3,2-c]quinolin-1-yl]carbonyl}cyclohexyl)benzamide] was less than 1 nM; that for `O=C(N[C@@H]1CCCC[C@@H]1C(=O)N1CC[C@@H]2[C@H](c3cccs3)Nc3ccccc3[C@@H]21)c1ccccc1` (relative stereo) [Example 17, N-((1R,2S)-2-{[(3aR*,4R*,9bR*)-4-(2-Thienyl)-2,3,3a,4,5,9b-hexahydro-1H-pyrrolo[3,2-c]quinolin-1-yl]carbonyl}cyclohexyl)benzamide] was less than 10 nM.
The value for `O=C(N[C@@H]1CCCC[C@@H]1C(=O)N1CC[C@H]2[C@@H](c3ccsc3)Nc3ccccc3[C@H]21)c1ccccc1` (relative stereo) [Example 18, N-((1R,2S)-2-{[(3aS*,4S*,9bS*)-4-(3-Thienyl)-2,3,3a,4,5,9b-hexahydro-1H-pyrrolo[3,2-c]quinolin-1-yl]carbonyl}cyclohexyl)benzamide] was less than 1 nM; that for `O=C(N[C@@H]1CCCC[C@@H]1C(=O)N1CC[C@@H]2[C@H](c3ccccn3)Nc3ccccc3[C@@H]21)c1ccccc1` (relative stereo) [Example 19, N-((1R,2S)-2-{[(3aR*,4R*,9bR*)-4-Pyridin-2-yl-2,3,3a,4,5,9b-hexahydro-1H-pyrrolo[3,2-c]quinolin-1-yl]carbonyl}cyclohexyl)benzamide] was less than 10 nM.
The value for `O=C(N[C@@H]1CCCC[C@@H]1C(=O)N1CC[C@@H]2[C@H](c3cccnc3)Nc3ccccc3[C@@H]21)c1ccccc1` (relative stereo) [Example 20, N-((1R,2S)-2-{[(3aR*,4R*,9bR*)-4-Pyridin-3-yl-2,3,3a,4,5,9b-hexahydro-1H-pyrrolo[3,2-c]quinolin-1-yl]carbonyl}cyclohexyl)benzamide] was less than 10 nM.
`Cn1cccc1[C@@H]1Nc2ccccc2[C@H]2[C@@H]1CCN2C(=O)[C@H]1CCCC[C@H]1NC(=O)c1ccccc1` (relative stereo) [Example 23, N-((1R,2S)-2-{[(3aR*,4R*,9bR*)-4-(1-Methyl-1H-pyrrol-2-yl)-2,3,3a,4,5,9b-hexahydro-1H-pyrrolo[3,2-c]quinolin-1-yl]carbonyl}cyclohexyl)benzamide] gave an IC50 of less than 10 nM.
Molecule `O=C(N[C@@H]1CCCC[C@@H]1C(=O)N1CC[C@@H]2[C@H](c3nccs3)Nc3ccccc3[C@@H]21)c1ccccc1` (relative stereo) [Example 25, N-((1R,2S)-2-{[(3aR*,4R*,9bR*)-4-(1,3-Thiazol-2-yl)-2,3,3a,4,5,9b-hexahydro-1H-pyrrolo[3,2-c]quinolin-1-yl]carbonyl}cyclohexyl)benzamide] showed a half-maximal inhibitory concentration (IC50) of less than 10 nM.
Regarding `CCC[C@@H]1Nc2ccccc2[C@H]2[C@@H]1CCN2C(=O)[C@H]1CCCC[C@H]1NC(=O)c1ccccc1` (relative stereo) [Example 27, N-((1R,2S)-2-{[(3aR*,4S*,9bR*)-4-Propyl-2,3,3a,4,5,9b-hexahydro-1H-pyrrolo[3,2-c]quinolin-1-yl]carbonyl}cyclohexyl)benzamide], the IC50 was less than 10 nM.
The value for `CC(C)[C@@H]1Nc2ccccc2[C@H]2[C@@H]1CCN2C(=O)[C@H]1CCCC[C@H]1NC(=O)c1ccccc1` (relative stereo) [Example 28, N-((1R,2S)-2-[(3aR*,4S*, 9bR*)-4-Isopropyl-2,3,3a,4,5,9b-hexahydro-1H-pyrrolo[3,2-c]quinolin-1-yl]carbonyl)cyclohexyl)benzamide] was less than 10 nM; that for `O=C(N[C@@H]1CCCC[C@@H]1C(=O)N1CC[C@@H]2[C@H](C3CC3)Nc3ccccc3[C@@H]21)c1ccccc1` (relative stereo) [Example 29, N-((1R,2S)-2-{[(3aR*,4S*,9bR*)-4-Cyclopropyl-2,3,3a,4,5,9b-hexahydro-1H-pyrrolo[3,2-c]quinolin-1-yl]carbonyl}cyclohexyl)benzamide] was less than 10 nM.
As for `COC[C@@H]1Nc2ccccc2[C@H]2[C@@H]1CCN2C(=O)[C@H]1CCCC[C@H]1NC(=O)c1ccccc1` (relative stereo) [Example 51, N-((1R,2S)-2-{[(3aR*,4R*,9bR*)-4-(Methoxymethyl)-2,3,3a,4,5,9b-hexahydro-1H-pyrrolo[3,2-c]quinolin-1-yl]carbonyl}cyclohexyl)benzamide], the half-maximal inhibitory concentration (IC50) was less than 10 nM.
As for `O=C(N[C@@H]1CCCC[C@@H]1C(=O)N1CC[C@@H]2[C@H](c3cc[nH]c3)Nc3ccccc3[C@@H]21)c1ccccc1` (relative stereo) [Example 52, N-((1R,2S)-2-{[(3aR*,4R*,9bR*)-4-(1H-Pyrrol-3-yl)-2,3,3a,4,5,9b-hexahydro-1H-pyrrolo[3,2-c]quinolin-1-yl]carbonyl}cyclohexyl)benzamide], the IC50 is less than 10 nM.
As to `CNC[C@@H]1Nc2ccccc2[C@H]2[C@@H]1CCN2C(=O)[C@H]1CCCC[C@H]1NC(=O)c1ccccc1` (relative stereo) [Example 53, N-[(1R,2S)-2-({(3aR*,4R*,9bR*)-4-[(Methylamino)methyl]-2,3,3a,4,5,9b-hexahydro-1H-pyrrolo[3,2-c]quinolin-1-yl}carbonyl)cyclohexyl]benzamide dihydrochloride], the half-maximal inhibitory concentration (IC50) was less than 10 nM.

The values above are taken from US7943770B2, “Fused quinoline derivative and use thereof” (Takeda Pharmaceutical Company Limited, priority 2004, dated 2011).
